The test system of test [1] is Rattus norvegicus. Put plainly: Systolic blood pressure (SBP) in anesthetized spontaneously hypertensive rats (SHR) before administration of 75 mg/kg dose perorally. On the set-up: unit: mmHg. The settings on record: route oral. Format: functional.
Test [2] deals with Rattus norvegicus. The test can be described thus: Systolic blood pressure (SBP) in anesthetized spontaneously hypertensive rats(SHR) at 7.5 hours after administration of 75 mg/kg dose perorally; NS is not statistically significant.
Test [3] has as its system Rattus norvegicus. The test can be described thus: Systolic blood pressure (SBP) in anesthetized spontaneously hypertensive rats(SHR) at 7.5 hours after administration of 35 mg/kg dose perorally. The settings on record: route oral. Type of test: functional.
The subject of test [4] is Rattus norvegicus. Put plainly: Systolic blood pressure (SBP) in anesthetized spontaneously hypertensive rats(SHR) before administration of 35 mg/kg dose perorally. Format: functional. On the set-up: unit not given here. The settings on record: route oral.
The target in test [5] is Adrenergic receptor beta (Rattus norvegicus, UniProt P18090+P10608+P26255).
Description: Inhibition constant from beta adrenergic receptor binding assay
Test [6] concerns Rattus norvegicus. The test can be described thus: Compound was evaluated for % decrease in hypothalamus norepinephrine in anesthetized spontaneously hypertensive rats(SHR) at 24 hours after administration of 35 mg/kg dose perorally. Type of test: functional. The settings on record: route oral.
The test system of test [7] is Rattus norvegicus. The test can be described thus: Compound was evaluated for % decrease in heart norepinephrine in anesthetized spontaneously hypertensive rats(SHR) at 24 hours after administration of 35 mg/kg dose perorally. Format: functional. The settings on record: route oral.
In test [8] the test system is Rattus norvegicus. Put plainly: Compound was evaluated for % decrease in adrenal epinephrine in anesthetized spontaneously hypertensive rats(SHR) at 24 hours after administration of 35 mg/kg dose perorally. Format: functional. The settings on record: route oral.
The subject of test [9] is Rattus norvegicus. The test can be described thus: Systolic blood pressure (SBP) in anesthetized spontaneously hypertensive rats(SHR) before administration of 150 mg/kg dose perorally. The settings on record: route oral. Type of test: functional.
Test [10] is filed under the species Cavia porcellus. The test can be described thus: Inhibition of the isoproterenol response at a dose of 1 x 10e -4M in guinea pig; slight inhibition was found. Format: functional, organism-based.
The test system of test [11] is Rattus norvegicus. Put plainly: Systolic blood pressure (SBP) in anesthetized spontaneously hypertensive rats(SHR) at 7.5 hours after administration of 75 mg/kg dose perorally. Format: functional. The settings on record: route oral.
In test [12] the test system is Rattus norvegicus. The test can be described thus: Systolic blood pressure (SBP) in anesthetized spontaneously hypertensive rats(SHR) at 7.5 hours after administration of 75 mg/kg dose perorally; value not statistically significant. Format: functional. The settings on record: route oral.
In test [13] the test system is Rattus norvegicus. The test can be described thus: Systolic blood pressure (SBP) in anesthetized spontaneously hypertensive rats(SHR) at 7.5 hours after administration of 30 mg/kg dose intravenously; NS is not statistically significant. On the set-up: dose 30 mg/kg. Type of test: functional, organism-based.
Test [14] relates to Rattus norvegicus. The test can be described thus: Systolic blood pressure (SBP) in anesthetized spontaneously hypertensive rats(SHR) before administration of 30 mg/kg dose intravenously. Type of test: functional. The settings on record: route intravenous.
The test system of test [15] is Rattus norvegicus. Put plainly: Systolic blood pressure (SBP) in anesthetized spontaneously hypertensive rats(SHR) at 7.5 hours after administration of 75 mg/kg dose perorally; NS is not statistically significant.
For test [16], the system named is Rattus norvegicus. Put plainly: Systolic blood pressure (SBP) in anesthetized spontaneously hypertensive rats(SHR) at 7.5 hours after administration of 17 mg/kg dose perorally. Type of test: functional. The settings on record: route oral.
Test [17] relates to Rattus norvegicus. The test can be described thus: Systolic blood pressure (SBP) in anesthetized spontaneously hypertensive rats(SHR) before administration of 17 mg/kg dose perorally. Type of test: functional. The settings on record: route oral.
The species named for test [18] is Cavia porcellus. Put plainly: Inhibition of the isoproterenol response at a dose of 1 x 10e -4M in guinea pig; slight inhibition was found. Type of test: functional, organism-based.
Test [19] has as its system Rattus norvegicus. The test can be described thus: Systolic blood pressure (SBP) in anesthetized spontaneously hypertensive rats(SHR) at 7.5 hours after administration of 35 mg/kg dose perorally; NS is not statistically significant.

The structures appear in SMILES notation. Calls of active or inactive are those of the source. The rule behind the calls is not given here.

As to `O=c1cc(-c2ccccc2)oc2cc(OCC(O)CNC3CCS(=O)(=O)C3)ccc12` (configuration not stated), the Systolic blood pressure in [1] is reported as 196. Also, the “Decrease in Systolic blood pressure” value in test [2] was “Not significant”.
In turn, `O=c1cc(-c2ccccc2)oc2cc(OCC3CO3)ccc12` (configuration not stated) gave a Systolic blood pressure in test [1] of 120.
A word on the Ki: it is a measure of affinity in units of concentration, obtained from inhibition or displacement. For `CCNCC(O)COc1ccc2c(=O)cc(-c3ccccc3)oc2c1` (configuration not stated), the “Decrease in Systolic blood pressure” value in [3] is 16%. Further, in test [4], the Systolic blood pressure was found to be 186. This compound also returned a Ki in test [5] of 7500 nM.
With `O=c1cc(-c2ccccc2)oc2cc(OCC(O)CNCC(O)COc3ccccc3)ccc12` (configuration not stated), the Systolic blood pressure in test [1] was 198. In test [2], the “Decrease in Systolic blood pressure” value is “Not significant”.
As for `CCCNCC(O)COc1ccc2c(=O)c(-c3ccccc3)c(-c3ccccc3)oc2c1` (configuration not stated), the Decrease in [6] is reported as 12%; in test [7] it was 100%; in [8], 10%.
As for `CC(C)(C)NCC(O)COc1ccc2c(=O)cc(-c3ccccc3)oc2c1` (configuration not stated), in test [9], the Systolic blood pressure is on record as 201. For the same compound, the Ki in [5] came to 18000 nM.
Regarding `Cc1c(-c2ccccc2)oc2cc(OCC(O)CNC(C)C)ccc2c1=O` (configuration not stated), in [10], the Activity result is “slight inhibition was found”. Moreover, the entries for the “Decrease in Systolic blood pressure” value in [3] and in [11] were 10% and 27%, respectively. Moreover, the Systolic blood pressure in test [4] is recorded as 206; in [1] it was 208.
For the compound `CC(C)[N+](C)(C)CC(O)COc1ccc2c(=O)cc(-c3ccccc3)oc2c1.[I-]` (configuration not stated), the Systolic blood pressure in [1] was found to be 200. For the same compound, the “Decrease in Systolic blood pressure” value in [2] was “Not significant”.
`CC(C)NCC(O)COc1cccc2c(=O)cc(-c3ccccc3)oc12` (configuration not stated) yielded a Systolic blood pressure in test [1] of 209. This compound also displayed a Ki in [5] of 7.5 nM.
`COc1ccc(-c2cc(=O)c3ccc(OCC(O)CNC(C)C)cc3o2)cc1` (configuration not stated): the “Decrease in Systolic blood pressure” value in test [12] is reported as 10%. For the same compound, the Systolic blood pressure in test [1] came to 198.
Take `CCCNCC(O)COc1cccc2oc(-c3ccccc3)cc(=O)c12` (configuration not stated): the “Decrease in Systolic blood pressure” value in test [13] was “Not significant”. The Systolic blood pressure in [14] is 157.
`CC(C)NCC(O)COc1ccc2c(=O)cc(-c3cccc(Cl)c3)oc2c1` (configuration not stated) gave a Systolic blood pressure in test [1] of 200. The “Decrease in Systolic blood pressure” value in [15] was “Not significant”.
For the compound `NCC(O)COc1ccc2c(=O)cc(-c3ccccc3)oc2c1` (configuration not stated), the Systolic blood pressure in [1] stood at 187. Further, the “Decrease in Systolic blood pressure” value in [2] is “Not significant”.
For `CC(C)NCC(O)COc1ccc2c(=O)cc(-c3ccc(Cl)cc3)oc2c1` (configuration not stated), the “Decrease in Systolic blood pressure” value in test [3] amounted to 19%. Further, in [4], the Systolic blood pressure was determined as 192.
`O=c1cc(-c2ccccc2)oc2cc(OCC(O)CNCc3ccccc3)ccc12` (configuration not stated) displayed a Systolic blood pressure in test [1] of 223. The “Decrease in Systolic blood pressure” value in test [15] was “Not significant”.
The compound `COc1ccc(CCNCC(O)COc2ccc3c(=O)cc(-c4ccccc4)oc3c2)cc1OC` (configuration not stated) returned a Systolic blood pressure in [1] of 204. For the same compound, in [15], the “Decrease in Systolic blood pressure” value was “Not significant”.
On to `O=c1cc(-c2ccccc2)oc2cc(OCC(O)CNC3CC3)ccc12` (configuration not stated), for which the figures for the “Decrease in Systolic blood pressure” value in test [16], in test [3] and in [11] were 21%, 31% and 32%, respectively. Besides, the Systolic blood pressure in [17] turned out to be 197; in test [4], 198; in [1], 196. In addition, the Activity result in [18] was “Weak activity”. In test [5], this compound registered a Ki of 1500 nM.
`O=c1cc(-c2ccccc2)oc2cc(OCC(O)CN3CCN(c4ccccc4)CC3)ccc12` (configuration not stated) displayed a Systolic blood pressure in [1] of 217. Further, the “Decrease in Systolic blood pressure” value in [15] is “Not significant”.
Regarding `CCCCNCC(O)COc1ccc2c(=O)cc(-c3ccccc3)oc2c1` (configuration not stated), the “Decrease in Systolic blood pressure” value in [3] worked out at 26%. The compound also had a Systolic blood pressure in [4] of 202.
Consider `CNCC(O)COc1ccc2c(=O)cc(-c3ccccc3)oc2c1` (configuration not stated), for which the Systolic blood pressure in test [4] turned out to be 190. Also, the “Decrease in Systolic blood pressure” value in test [19] was “Not significant”.
Take `O=c1cc(-c2ccccc2)oc2cc(O)ccc12` [7-HYDROXYFLAVONE]: the Systolic blood pressure in test [1] was found to be 217.
Regarding `CC(C)NCC(O)COc1ccc2c(=O)cc(-c3ccccc3Cl)oc2c1` (configuration not stated), the “Decrease in Systolic blood pressure” value in test [3] was 18%. This compound also gave a Systolic blood pressure in [4] of 192.
Compound `Cc1cc(=O)c2ccc(OCC(O)CNC(C)C)cc2o1` (configuration not stated) came in with a Systolic blood pressure in [1] of 196. For the same compound, the Ki in test [5] came to 23000 nM. Moreover, the “Decrease in Systolic blood pressure” value in test [15] was “inactive”.
In the case of `CCCNCC(COc1ccc2c(=O)cc(-c3ccccc3)oc2c1)OC(=O)c1ccccc1` (configuration not stated), in [11], the “Decrease in Systolic blood pressure” value came to 22.5%. This compound also gave a Systolic blood pressure in test [1] of 187.
The corresponding values for `CC(C)NCC(O)COc1cc(O)c2c(=O)cc(-c3ccccc3)oc2c1` (configuration not stated) are 15% and 195.
As for `CC(C)N(Cc1ccccc1)CC(O)COc1ccc2c(=O)cc(-c3ccccc3)oc2c1` (configuration not stated), in test [1], the Systolic blood pressure was found to be 200. Moreover, the “Decrease in Systolic blood pressure” value in test [15] was “Not significant”.
In test [1], `CC(C)NCC(O)COc1ccc2c(=O)cc(-c3ccc([N+](=O)[O-])cc3)oc2c1` (configuration not stated) returned a Systolic blood pressure of 202. Moreover, in [15], the “Decrease in Systolic blood pressure” value was “Not significant”.
`CC(C)NCC(O)COc1cccc2ccccc12` (configuration not stated) [PROPRANOLOL]: the Systolic blood pressure in test [1] was 212. In addition, the “Decrease in Systolic blood pressure” value in test [2] is “inactive”.
In the case of `CC(C)NCCCOc1ccc2c(=O)cc(-c3ccccc3)oc2c1`, the Systolic blood pressure in [1] is 204. Further, the “Decrease in Systolic blood pressure” value in test [2] is “Not significant”.
`Cc1ccc(-c2cc(=O)c3ccc(OCC(O)CNC(C)C)cc3o2)cc1` (configuration not stated): the Systolic blood pressure in test [1] is 196. In addition, the “Decrease in Systolic blood pressure” value in [15] is “Not significant”.
Take `CC(C)NCC(O)COc1ccc2c(=O)c(Cc3ccccc3)c(-c3ccccc3)oc2c1` (configuration not stated): the Systolic blood pressure in [1] turned out to be 200. In [2], the “Decrease in Systolic blood pressure” value was “Not significant”.
For `CC(C)NCC(O)COc1ccc2c(c1)OC(c1ccccc1)CC2=O` (configuration not stated), in that order: 198 and “Not significant”.
Consider `CC(C)NCC(O)COc1ccc2oc(-c3ccccc3)cc(=O)c2c1` (configuration not stated), for which the Activity result in test [10] was “Weak activity”. Besides, the “Decrease in Systolic blood pressure” value in test [11] came to 12%. In addition, the Systolic blood pressure in [1] worked out at 199. For the same compound, the Ki in test [5] amounted to 2200 nM.
Regarding `CCCNCC(O)COc1ccc2c(=O)c(Cc3ccccc3)c(-c3ccccc3)oc2c1` (configuration not stated), the “Decrease in Systolic blood pressure” value in test [11] came out at 14%. Besides, the Systolic blood pressure in test [1] was found to be 198.
Turning to `O=c1cc(-c2ccccc2)oc2cc(OCC(O)CNCCO)ccc12` (configuration not stated), the Systolic blood pressure in test [1] was determined as 189. In test [15], the “Decrease in Systolic blood pressure” value was “Not significant”.

The values above are taken from ChEMBL document CHEMBL1124625, “Flavones. 2. Synthesis and structure-activity relationship of flavodilol and its analogues, a novel class of antihypertensive agents with catecholamine depleting properties” (J Med Chem, 1989).
